Format in all cases: in vivo
Experiment [1] concerns beet armyworm (Spodoptera exigua). As to the kind of experiment: Insecticidal test for beet armyworm (treated lepidopteran diet). The conditions noted are these: Spodoptera exigua, 120 h, 2nd instar larvae, 5 days, rating of % Control, read-out: BAW, activity at 400 ppm against beet armyworm.
Experiment [2] has as its system two-spotted spider mite (Tetranychus urticae). As to the kind of experiment: Insecticidal test for two-spotted spider mite, ovicide method. The conditions noted are these: Tetranychus urticae, foliar, 144 h; ovicide method, cotton leaf discs, 6 days; rating of % Control; read-out: SM, activity against two-spotted spider mite. As for the experimental part:
Insecticidal test for two-spotted spider mite (Tetranychus urticae)
Ten adult female two-spotted spider mites were placed on eight 2.2 cm leaf discs of cotton leaf, allowed to oviposit over 24 hours, and thereafter removed. […] Discs were placed on an agar substrate and held at 24 °C and 90% RH for 6 days.

Experiment [3] has as its system cotton aphid (Aphis gossypii). As to the kind of experiment: Insecticidal test for cotton aphid (spray on infested squash cotyledons). The conditions noted are these: 50 ppm spray, all life stages, 3 days, rating of % Control. As for the experimental part: Insecticidal test for cotton aphid (Aphis gossypii)
To prepare spray solutions, 1 mg of each test compound was dissolved into 1 mL of a 90:10 acetone:ethanol solvent. This 1 mL of chemical solution was added to 19 mL of water containing 0.05% Tween 20 surfactant to produce a 50 ppm spray solution.
Squash cotyledons were infested with cotton aphid (all life stages)16-20 hours prior to application of spray solution. The solution was sprayed on both sides of each infested squash cotyledon (0.5 mL x 2 each side) with a sweeping action until runoff. The plants were allowed to air dry and held for 3 days in a controlled room at 26 °C and 40% RH after which time the test was graded. Grading was by actual count using a dissecting microscope and comparison of test counts to the untreated check.

The subject of experiment [4] is cabbage looper (Trichoplusia ni). As to the kind of experiment: Insecticidal test for cabbage looper (leaf-dip, cabbage leaf discs). The conditions noted are these: Trichoplusia ni, foliar, 120 h, dipped cabbage leaf discs, 2nd instar larvae, 5 days, rating of % Control, read-out: CL, activity at 400 ppm against cabbage looper.
Experiment [5] relates to Sweetpotato Whitefly (Bemisia tabacia). The experiment is described as follows: Insecticidal test for sweetpotato whitefly (spray on cotton plants). The conditions noted are these: Bemisia, 312 h, 200 ppm spray, large nymphs counted after 13 days, rating of % Control, read-out: WF, activity at 200 ppm against whitefly. On the procedure:
Insecticidal test for Sweetpotato Whitefly (Bemisia tabacia)
Four mg of each test compound were dissolved by adding 4 mL of a 90:10 acetone:ethanol solvent mixture to the vial containing the sample compound. This solution was added to 16 mL of water containing 0.05% Tween 20 surfactant to produce 20 mL of a 200 ppm spray solution.
Five-week-old cotton plants reared in a greenhouse were stripped of all foliage except for the two uppermost true leaves that were greater than 5 cm in diameter. These plants were then placed into a laboratory colony of whiteflies for two days for oviposition by the colony females. All whiteflies were then removed from the test plants with pressurized air. The spray solution was then applied to the test plants with a hand-held syringe fitted with hollow cone nozzle. One mL spray solution was applied to each leaf top and bottom for a total of 4 mL per plant. Four replications of each test compound utilized a total of 16 mL spray solution. Plants were air dried and then placed in a holding chamber (28 °C and 60% RH) for 13 days. Compound efficacy was evaluated by counting, under an illuminated magnifying glass, the number of large nymphs (3rd-4th instar) per leaf
Percent control based on reduction of large nymphs of a test compound compared to solution-only (no test compound) sprayed plants is reported in Table 1-8.

Experiment [6] has as its system tobacco budworm (Heliothis virescens). The experiment is described as follows: Insecticidal test for tobacco budworm (leaf-dip, cotton cotyledon discs). The conditions noted are these: Heliothis virescens, 120 h, dipped cotton cotyledon discs, 2nd instar larvae, 5 days, rating of % Control, read-out: TBW, activity at 400 ppm against tobacco budworm.

Each structure is given as a SMILES string.

This is an account of results in patent EP1397353B1, “2-(2,6-DISUBSTITUTED PHENYL)-4-ARYL-5-ALKYL-1,3-OXAZOLINE COMPOUNDS USEFUL AS INSECTICIDES AND ACARICIDES” (Dow AgroSciences LLC, priority 2001, dated 2003).

For the molecule `C[C@@H]1OC(c2c(F)cccc2F)=N[C@@H]1c1ccc(Br)cc1` (mixture of isomers) [Compound 2, (4R,5S)- and (4S,5R)-4-(4-bromophenyl)-2-(2,6-difluorophenyl)-5-methyl-4,5-dihydro-1,3-oxazole], the pest or weed control at 400 ppm in experiment [1] and in experiment [4] was < 50% each time. Moreover, in experiment [2], the pest or weed control is 90 to 100%. Besides, the “CA, activity at 50 ppm against cotton aphid” value (shortened to “CA, activity at 50 ppm”) in experiment [3] is reported as “A (90-100)”. In experiment [5], the pest or weed control at 200 ppm was 90 to 100%.
Take `C[C@@H]1OC(c2c(F)cccc2Cl)=N[C@@H]1c1ccc(Br)cc1` (mixture of isomers) [Compound 3, (4R,5S)- and (4S,5R)-4-(4-bromophenyl)-2-(2-chloro-6-fluorophenyl)-5-methyl-4,5-dihydro-1,3-oxazole]: in experiment [2], the pest or weed control lay within 90 to 100%. Besides, the “CA, activity at 50 ppm” value in experiment [3] was “B (80-89)”. In addition, the pest or weed control at 400 ppm in experiment [4] was in the range of 90 to 100%. In addition, in experiment [5], the pest or weed control at 200 ppm was 90 to 100%.
Turning to `C[C@H]1OC(c2c(F)cccc2F)=N[C@H]1c1ccc(-c2ccc(OC(F)(F)F)cc2)cc1` (mixture of isomers) [Compound 6, (4S,5R)- and (4R,5S)-2-(2,6-difluorophenyl)-4-(4'-trifluoromethoxy-1,1'-biphenyl-4-yl)-5-methyl-4,5-dihydro-1,3-oxazole], the pest or weed control at 400 ppm in experiment [1], in experiment [4] and in experiment [6] was 90 to 100% each time. Moreover, the pest or weed control in experiment [2] lay in the range of 90 to 100%. In experiment [3], the “CA, activity at 50 ppm” value was “A (90-100)”. Besides, in experiment [5], the pest or weed control at 200 ppm lay within 80 to 89%.
As to `Cc1cc(-c2ccc(OC(F)(F)F)cc2)ccc1[C@H]1N=C(c2c(F)cccc2F)O[C@H]1C` (mixture of isomers) [Compound 40, (4R,5S)- and (4S,5R)-2-(2,6-difluorophenyl)-5-methyl-4[3-methyl-4'-(trifluoromethoxy)-1,1'-biphenyl-4-yl]-4,5-dihydro-1,3-oxazole], the pest or weed control at 400 ppm in experiment [1], in experiment [4] and in experiment [6] was 90 to 100% throughout. In addition, the pest or weed control in experiment [2] lay in the range of 80 to 89%. The pest or weed control at 200 ppm in experiment [5] is < 50%.
